Converted amounts (≈) assume the structure as drawn.
Columns and labels:
[1] = molecular target: T1, Bromodomain-containing protein 9 (Homo sapiens, UniProt Q9H8M2); assay: Inhibition of human partial length BRD9 (R130 to V259 residues) expressed in bacterial expression system measured by BROMOscan assay
T1 sequence (Q9H8M2 whole entry): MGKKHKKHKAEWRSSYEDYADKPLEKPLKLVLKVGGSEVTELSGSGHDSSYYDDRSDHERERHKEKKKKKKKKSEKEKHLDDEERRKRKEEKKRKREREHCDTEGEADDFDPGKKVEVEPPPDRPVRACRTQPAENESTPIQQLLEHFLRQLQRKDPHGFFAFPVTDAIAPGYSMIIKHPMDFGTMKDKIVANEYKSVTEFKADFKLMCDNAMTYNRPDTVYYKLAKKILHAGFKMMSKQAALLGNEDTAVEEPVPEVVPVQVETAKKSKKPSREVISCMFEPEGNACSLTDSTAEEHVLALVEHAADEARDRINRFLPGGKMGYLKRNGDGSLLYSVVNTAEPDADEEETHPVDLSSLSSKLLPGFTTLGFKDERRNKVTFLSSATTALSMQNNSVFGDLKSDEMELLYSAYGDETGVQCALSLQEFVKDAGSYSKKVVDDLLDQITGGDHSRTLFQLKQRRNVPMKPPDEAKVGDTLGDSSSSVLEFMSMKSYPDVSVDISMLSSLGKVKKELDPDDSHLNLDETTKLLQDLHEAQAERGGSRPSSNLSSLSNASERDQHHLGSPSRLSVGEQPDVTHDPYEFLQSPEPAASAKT

[2] = Passive permeability of the compound across artificial membrane by AMP assay; assay type: ADME; settings: PAMPA; read-out: permeability
[3] = molecular target: Bromodomain-containing protein 4 (Homo sapiens, UniProt O60885); assay: Inhibition of human partial length BRD4 BD2 (K333 to E460 residues) expressed in bacterial expression system by BROMOscan assay
[4] = Solubility of the compound by CAD method; assay type: physicochemical
[5] = molecular target: Chromatin remodeling regulator CECR2 (Homo sapiens, UniProt Q9BXF3); assay: Inhibition of human partial length CECR2 (P423 to D543 residues) expressed in bacterial expression system by BROMOscan assay
[6] = molecular target: T2, Transcription initiation factor TFIID subunit 1 (Homo sapiens, UniProt P21675); assay: Inhibition of TAF1 bromodomain 2 (unknown origin) by TR-FRET assay
[7] = molecular target: T2, Transcription initiation factor TFIID subunit 1; assay: Displacement of Halo-tagged histone H4 from NanoLuc-tagged TAF1 bromodomain 2 (unknown origin) expressed in HEK293 cells measured after 4 to 6 hrs by NanoBRET assay; assay type: cell-based

T2 sequence (P21675 whole entry): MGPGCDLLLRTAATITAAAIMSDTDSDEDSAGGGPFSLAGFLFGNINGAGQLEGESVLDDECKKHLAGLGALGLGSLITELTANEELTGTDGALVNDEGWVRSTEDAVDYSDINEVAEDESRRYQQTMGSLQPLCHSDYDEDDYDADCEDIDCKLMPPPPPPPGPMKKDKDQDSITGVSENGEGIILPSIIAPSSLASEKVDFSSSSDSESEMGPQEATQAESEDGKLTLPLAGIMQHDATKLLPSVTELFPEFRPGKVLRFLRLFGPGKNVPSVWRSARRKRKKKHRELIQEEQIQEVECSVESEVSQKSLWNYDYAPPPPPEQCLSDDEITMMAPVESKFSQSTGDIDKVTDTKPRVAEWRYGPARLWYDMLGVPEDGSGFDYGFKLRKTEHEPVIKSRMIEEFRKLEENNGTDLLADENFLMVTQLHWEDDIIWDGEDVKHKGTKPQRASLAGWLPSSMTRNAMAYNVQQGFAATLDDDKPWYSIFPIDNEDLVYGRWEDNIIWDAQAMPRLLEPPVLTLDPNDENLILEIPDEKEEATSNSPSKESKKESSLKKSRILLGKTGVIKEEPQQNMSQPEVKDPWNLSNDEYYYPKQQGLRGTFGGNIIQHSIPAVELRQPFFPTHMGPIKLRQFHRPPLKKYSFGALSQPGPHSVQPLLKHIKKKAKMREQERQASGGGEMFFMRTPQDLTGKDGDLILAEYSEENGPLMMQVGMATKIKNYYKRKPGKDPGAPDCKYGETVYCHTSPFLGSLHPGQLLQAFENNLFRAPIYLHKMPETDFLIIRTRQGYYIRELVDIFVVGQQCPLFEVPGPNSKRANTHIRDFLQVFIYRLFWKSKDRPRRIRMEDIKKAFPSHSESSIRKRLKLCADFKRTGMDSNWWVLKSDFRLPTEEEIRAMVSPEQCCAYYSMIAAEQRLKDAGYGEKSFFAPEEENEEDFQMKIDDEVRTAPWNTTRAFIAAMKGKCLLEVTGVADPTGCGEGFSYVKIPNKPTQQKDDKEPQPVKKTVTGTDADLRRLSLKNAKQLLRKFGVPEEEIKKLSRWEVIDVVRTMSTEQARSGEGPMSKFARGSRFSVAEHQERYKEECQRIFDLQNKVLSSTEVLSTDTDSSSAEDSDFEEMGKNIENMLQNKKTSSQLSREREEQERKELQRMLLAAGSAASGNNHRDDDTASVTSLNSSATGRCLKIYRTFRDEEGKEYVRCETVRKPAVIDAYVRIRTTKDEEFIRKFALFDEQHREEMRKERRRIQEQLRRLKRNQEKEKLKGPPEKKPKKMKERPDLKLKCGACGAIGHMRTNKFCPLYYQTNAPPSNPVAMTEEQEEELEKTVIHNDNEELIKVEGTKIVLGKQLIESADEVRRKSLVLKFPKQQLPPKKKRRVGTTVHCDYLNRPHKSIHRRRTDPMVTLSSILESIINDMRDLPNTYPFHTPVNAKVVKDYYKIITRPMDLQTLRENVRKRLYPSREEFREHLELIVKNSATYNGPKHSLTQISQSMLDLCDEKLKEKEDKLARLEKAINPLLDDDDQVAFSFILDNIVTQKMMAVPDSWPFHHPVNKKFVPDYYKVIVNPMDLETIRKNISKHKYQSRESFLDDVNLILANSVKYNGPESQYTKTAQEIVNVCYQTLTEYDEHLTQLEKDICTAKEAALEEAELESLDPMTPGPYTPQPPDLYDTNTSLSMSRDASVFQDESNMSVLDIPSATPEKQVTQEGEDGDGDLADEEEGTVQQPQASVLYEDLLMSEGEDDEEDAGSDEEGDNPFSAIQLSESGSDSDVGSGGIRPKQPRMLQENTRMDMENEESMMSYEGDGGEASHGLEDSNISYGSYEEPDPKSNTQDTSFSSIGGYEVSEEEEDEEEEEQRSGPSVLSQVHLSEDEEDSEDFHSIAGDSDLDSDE
Chain of Chromatin remodeling regulator CECR2 (Q9BXF3 whole entry, the tested form may be a part): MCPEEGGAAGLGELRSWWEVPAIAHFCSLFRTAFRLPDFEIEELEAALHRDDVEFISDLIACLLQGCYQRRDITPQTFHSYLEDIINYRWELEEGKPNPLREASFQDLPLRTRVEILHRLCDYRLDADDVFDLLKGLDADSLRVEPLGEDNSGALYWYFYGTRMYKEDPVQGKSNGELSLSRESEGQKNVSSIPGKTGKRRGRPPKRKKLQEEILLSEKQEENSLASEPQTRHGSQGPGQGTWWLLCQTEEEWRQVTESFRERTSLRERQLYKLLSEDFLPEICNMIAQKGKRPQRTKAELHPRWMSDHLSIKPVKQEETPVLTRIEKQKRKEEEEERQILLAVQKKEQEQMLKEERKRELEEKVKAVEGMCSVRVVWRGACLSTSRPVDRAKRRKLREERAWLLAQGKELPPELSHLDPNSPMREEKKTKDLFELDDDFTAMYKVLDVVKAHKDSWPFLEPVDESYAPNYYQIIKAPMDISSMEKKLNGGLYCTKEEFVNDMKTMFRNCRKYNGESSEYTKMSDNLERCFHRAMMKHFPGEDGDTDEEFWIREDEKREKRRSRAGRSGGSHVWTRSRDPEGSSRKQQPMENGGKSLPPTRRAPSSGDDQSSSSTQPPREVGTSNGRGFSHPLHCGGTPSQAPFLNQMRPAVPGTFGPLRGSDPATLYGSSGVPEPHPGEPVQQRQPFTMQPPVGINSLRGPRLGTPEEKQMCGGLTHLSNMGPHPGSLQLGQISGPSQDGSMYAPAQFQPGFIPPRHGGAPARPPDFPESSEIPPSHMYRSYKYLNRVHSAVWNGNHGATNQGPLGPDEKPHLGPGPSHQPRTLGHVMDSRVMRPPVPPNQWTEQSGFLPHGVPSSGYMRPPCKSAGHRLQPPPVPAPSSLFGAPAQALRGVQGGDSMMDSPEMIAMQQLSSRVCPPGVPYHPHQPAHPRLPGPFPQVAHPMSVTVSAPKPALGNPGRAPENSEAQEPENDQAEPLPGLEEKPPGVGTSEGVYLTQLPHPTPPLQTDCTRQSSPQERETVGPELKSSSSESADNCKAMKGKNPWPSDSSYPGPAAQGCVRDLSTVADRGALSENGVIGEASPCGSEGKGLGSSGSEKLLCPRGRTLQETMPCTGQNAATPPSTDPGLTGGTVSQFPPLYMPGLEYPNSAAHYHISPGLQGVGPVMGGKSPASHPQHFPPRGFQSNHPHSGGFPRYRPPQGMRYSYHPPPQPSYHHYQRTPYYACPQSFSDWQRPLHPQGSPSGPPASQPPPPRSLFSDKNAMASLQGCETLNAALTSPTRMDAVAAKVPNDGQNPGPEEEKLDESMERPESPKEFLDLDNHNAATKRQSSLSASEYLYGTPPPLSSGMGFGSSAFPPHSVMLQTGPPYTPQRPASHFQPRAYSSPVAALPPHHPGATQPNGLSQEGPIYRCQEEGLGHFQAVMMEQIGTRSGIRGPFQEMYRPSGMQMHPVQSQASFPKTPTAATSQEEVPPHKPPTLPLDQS

Ki [1]: 39.8 nM
Papp [2]: 6.2 ×10⁻⁶ cm/s
Ki [3]: 794 nM
solubility [4]: 24 µg/mL (≈ 53.6 µM)
Ki [5]: 1000 nM
IC50 [6]: 39.8 nM
IC50 [7]: > 10000 nM
SMILES: Cc1cc2c(C3=CCOCC3)cnc(NC3CCN(C(=O)C(F)(F)CN)CC3)c2[nH]c1=O
